Measured values reported in ChEMBL document CHEMBL5291721, “A preclinical secondary pharmacology resource illuminates target-adverse drug reaction associations of marketed drugs” (Nat Commun, 2023).

Tests used:
[1] = target: Bile salt export pump (Homo sapiens, UniProt O95342); assay type: functional
[2] = target: Acetylcholinesterase (Homo sapiens, UniProt P22303); assay type: functional
[3] = target: T1, Alpha-2A adrenergic receptor (Homo sapiens, UniProt P08913)
T1 sequence (P08913 whole entry): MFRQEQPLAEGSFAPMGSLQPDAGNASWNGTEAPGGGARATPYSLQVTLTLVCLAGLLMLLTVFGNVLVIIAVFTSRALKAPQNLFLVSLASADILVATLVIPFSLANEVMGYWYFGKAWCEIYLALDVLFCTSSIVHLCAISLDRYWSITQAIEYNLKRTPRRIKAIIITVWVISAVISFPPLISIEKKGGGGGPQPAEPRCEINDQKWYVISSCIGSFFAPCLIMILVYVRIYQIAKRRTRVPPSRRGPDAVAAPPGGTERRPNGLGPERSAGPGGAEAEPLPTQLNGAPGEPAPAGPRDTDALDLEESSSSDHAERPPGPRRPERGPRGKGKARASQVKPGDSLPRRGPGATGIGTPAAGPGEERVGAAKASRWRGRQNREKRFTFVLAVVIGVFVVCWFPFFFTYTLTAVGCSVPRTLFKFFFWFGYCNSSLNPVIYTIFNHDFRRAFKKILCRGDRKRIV

[4] = target: T2, Muscarinic acetylcholine receptor M2 (Homo sapiens, UniProt P08172)
T2 sequence (P08172 whole entry): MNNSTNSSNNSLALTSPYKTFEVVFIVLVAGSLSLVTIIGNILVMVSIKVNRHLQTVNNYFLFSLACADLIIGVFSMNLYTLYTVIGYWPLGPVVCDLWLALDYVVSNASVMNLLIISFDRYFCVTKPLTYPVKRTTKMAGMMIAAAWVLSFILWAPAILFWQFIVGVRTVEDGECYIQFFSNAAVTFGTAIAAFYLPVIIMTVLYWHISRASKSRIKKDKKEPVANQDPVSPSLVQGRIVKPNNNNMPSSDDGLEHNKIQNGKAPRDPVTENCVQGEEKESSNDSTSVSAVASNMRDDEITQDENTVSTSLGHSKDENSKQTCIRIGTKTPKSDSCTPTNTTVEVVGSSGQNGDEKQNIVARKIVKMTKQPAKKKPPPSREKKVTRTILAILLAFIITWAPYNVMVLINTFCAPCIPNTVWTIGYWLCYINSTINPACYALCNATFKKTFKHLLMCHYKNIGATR

[5] = target: D(3) dopamine receptor (Homo sapiens, UniProt P35462)
[6] = target: Prothrombin (Homo sapiens, UniProt P00734); assay type: functional
[7] = target: Histamine H3 receptor (Homo sapiens, UniProt Q9Y5N1)
Sequence of Histamine H3 receptor (Q9Y5N1 whole entry): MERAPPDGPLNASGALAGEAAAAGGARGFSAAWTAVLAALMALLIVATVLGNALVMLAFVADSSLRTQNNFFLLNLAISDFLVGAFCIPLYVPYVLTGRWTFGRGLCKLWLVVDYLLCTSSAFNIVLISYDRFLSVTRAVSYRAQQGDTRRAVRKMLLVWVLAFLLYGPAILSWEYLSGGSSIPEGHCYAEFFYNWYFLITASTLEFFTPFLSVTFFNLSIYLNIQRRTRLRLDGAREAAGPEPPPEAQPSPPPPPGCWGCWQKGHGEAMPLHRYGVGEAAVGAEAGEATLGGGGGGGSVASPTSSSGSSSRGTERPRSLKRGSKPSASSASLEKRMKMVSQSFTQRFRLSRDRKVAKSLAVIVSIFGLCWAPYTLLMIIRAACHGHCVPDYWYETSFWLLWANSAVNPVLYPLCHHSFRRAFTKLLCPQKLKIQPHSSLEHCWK

[8] = target: 5-hydroxytryptamine receptor 2B (Homo sapiens, UniProt P41595); assay type: functional, cell-based
Sequence of 5-hydroxytryptamine receptor 2B (P41595 whole entry): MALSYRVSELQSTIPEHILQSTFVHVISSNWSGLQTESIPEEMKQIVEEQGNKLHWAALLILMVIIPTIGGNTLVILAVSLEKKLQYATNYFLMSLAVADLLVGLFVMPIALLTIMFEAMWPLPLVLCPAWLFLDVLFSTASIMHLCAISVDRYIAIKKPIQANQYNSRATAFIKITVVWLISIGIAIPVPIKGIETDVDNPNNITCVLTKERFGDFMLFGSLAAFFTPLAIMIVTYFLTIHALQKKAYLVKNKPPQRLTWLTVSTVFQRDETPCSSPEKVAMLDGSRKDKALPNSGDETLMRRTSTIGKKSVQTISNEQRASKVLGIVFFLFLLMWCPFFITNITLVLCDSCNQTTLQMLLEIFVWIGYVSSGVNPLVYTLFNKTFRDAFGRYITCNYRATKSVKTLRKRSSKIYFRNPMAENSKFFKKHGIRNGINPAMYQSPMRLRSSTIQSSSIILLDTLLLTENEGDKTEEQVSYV

[9] = target: Voltage-gated inwardly rectifying potassium channel KCNH2 (Homo sapiens, UniProt Q12809); assay type: functional
Sequence of Voltage-gated inwardly rectifying potassium channel KCNH2 (Q12809 whole entry): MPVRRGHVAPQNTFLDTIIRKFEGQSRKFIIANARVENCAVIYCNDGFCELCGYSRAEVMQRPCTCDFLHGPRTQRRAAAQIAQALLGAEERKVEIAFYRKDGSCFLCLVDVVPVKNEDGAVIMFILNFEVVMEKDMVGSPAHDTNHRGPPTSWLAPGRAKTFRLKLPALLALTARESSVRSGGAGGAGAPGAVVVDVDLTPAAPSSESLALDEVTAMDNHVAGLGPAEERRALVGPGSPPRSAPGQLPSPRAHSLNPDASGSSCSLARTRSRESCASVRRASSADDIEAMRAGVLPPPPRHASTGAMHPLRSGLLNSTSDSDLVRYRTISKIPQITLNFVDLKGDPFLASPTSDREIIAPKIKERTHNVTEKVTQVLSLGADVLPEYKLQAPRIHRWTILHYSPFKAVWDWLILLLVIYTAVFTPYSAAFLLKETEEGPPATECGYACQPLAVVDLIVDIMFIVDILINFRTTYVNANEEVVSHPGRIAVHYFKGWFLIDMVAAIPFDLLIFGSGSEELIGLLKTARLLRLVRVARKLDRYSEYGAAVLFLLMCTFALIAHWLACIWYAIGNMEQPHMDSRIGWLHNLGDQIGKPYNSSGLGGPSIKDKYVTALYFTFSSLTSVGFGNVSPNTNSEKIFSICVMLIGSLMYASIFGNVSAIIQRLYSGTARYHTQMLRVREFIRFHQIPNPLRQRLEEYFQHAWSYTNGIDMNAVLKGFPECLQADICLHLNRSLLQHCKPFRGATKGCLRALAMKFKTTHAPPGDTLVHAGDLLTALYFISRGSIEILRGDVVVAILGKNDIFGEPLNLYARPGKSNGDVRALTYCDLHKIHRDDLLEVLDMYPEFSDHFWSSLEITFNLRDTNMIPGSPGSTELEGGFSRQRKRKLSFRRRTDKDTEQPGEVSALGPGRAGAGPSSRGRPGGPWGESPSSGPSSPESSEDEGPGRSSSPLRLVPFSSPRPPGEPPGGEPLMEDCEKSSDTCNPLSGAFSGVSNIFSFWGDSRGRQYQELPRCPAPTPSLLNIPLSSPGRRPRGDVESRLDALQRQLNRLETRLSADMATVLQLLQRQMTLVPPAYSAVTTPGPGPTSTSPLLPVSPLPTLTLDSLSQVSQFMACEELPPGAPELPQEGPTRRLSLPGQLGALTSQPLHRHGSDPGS

[10] = target: T3, Amine oxidase [flavin-containing] A (Homo sapiens, UniProt P21397); assay type: functional
T3 sequence (P21397 whole entry): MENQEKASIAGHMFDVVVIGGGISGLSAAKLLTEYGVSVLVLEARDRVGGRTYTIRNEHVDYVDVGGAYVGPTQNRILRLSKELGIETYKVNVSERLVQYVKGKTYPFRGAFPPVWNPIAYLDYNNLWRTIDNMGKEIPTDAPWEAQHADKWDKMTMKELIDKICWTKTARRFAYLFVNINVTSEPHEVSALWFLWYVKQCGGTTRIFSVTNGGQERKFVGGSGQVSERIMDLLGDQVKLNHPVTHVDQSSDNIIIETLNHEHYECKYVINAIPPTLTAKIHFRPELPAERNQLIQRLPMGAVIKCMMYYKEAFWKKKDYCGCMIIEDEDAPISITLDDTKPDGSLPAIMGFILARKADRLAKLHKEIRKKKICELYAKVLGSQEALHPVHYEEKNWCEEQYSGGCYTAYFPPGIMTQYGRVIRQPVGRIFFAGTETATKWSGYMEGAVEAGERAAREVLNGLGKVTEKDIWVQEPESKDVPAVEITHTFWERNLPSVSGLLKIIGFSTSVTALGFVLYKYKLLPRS

[11] = target: 3',5'-cyclic-AMP phosphodiesterase 4A (Homo sapiens, UniProt P27815); assay type: functional
Sequence of 3',5'-cyclic-AMP phosphodiesterase 4A (P27815 whole entry): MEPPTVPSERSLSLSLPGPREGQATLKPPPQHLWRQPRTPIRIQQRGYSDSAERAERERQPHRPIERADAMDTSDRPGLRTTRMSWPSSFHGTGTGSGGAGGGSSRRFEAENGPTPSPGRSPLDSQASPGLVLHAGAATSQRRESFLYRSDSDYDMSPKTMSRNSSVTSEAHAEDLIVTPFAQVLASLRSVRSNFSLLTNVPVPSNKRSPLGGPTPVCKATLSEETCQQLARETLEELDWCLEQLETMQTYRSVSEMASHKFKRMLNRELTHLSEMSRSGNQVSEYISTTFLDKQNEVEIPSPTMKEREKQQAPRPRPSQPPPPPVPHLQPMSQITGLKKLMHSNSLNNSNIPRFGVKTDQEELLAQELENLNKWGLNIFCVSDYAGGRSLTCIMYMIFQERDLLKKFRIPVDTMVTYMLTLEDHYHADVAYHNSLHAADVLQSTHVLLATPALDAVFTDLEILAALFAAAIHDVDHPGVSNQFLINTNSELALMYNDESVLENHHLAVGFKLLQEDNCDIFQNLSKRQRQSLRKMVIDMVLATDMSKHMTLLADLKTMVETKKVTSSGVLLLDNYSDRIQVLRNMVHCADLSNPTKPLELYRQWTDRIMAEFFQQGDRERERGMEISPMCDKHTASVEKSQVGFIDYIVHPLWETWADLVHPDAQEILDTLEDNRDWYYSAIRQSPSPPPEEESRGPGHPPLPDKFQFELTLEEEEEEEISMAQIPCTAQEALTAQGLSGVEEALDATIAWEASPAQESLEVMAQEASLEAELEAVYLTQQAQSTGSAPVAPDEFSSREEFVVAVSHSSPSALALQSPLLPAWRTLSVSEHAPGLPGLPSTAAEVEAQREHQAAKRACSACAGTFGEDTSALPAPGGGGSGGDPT

[12] = target: T4, Prostaglandin G/H synthase 1 (Homo sapiens, UniProt P23219); assay type: functional
T4 sequence (P23219 whole entry): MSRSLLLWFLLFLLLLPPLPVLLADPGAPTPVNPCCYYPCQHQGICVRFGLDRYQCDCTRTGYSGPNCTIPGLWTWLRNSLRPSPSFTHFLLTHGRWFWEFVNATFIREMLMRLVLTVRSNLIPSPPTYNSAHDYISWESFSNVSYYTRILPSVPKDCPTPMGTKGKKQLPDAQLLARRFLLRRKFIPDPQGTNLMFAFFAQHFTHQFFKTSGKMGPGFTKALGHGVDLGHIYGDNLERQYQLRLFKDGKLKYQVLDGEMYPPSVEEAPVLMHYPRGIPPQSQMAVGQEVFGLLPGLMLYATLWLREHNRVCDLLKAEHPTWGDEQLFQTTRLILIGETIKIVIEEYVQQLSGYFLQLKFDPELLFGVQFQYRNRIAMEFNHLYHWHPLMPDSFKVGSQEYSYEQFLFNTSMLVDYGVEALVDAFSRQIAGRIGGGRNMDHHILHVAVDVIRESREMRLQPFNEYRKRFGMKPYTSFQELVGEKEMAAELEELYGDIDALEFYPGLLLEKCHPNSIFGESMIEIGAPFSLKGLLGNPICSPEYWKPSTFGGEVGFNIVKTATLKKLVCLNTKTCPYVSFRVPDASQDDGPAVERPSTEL

[13] = target: T4, Prostaglandin G/H synthase 1; assay type: functional; remark: listed apart in the source
[14] = target: Sodium-dependent dopamine transporter (Homo sapiens, UniProt Q01959)
[15] = target: T5, Thromboxane A2 receptor (Homo sapiens, UniProt P21731); assay type: functional, cell-based
T5 sequence (P21731 whole entry): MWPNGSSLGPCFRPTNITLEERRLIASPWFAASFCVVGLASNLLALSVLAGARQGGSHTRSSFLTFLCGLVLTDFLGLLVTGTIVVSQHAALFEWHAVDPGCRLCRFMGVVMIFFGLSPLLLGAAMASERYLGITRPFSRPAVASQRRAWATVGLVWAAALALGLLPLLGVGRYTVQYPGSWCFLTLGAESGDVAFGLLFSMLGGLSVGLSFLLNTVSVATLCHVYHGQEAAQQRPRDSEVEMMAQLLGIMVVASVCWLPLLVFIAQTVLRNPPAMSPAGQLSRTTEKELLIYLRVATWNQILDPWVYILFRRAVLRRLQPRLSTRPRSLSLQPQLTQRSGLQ

[16] = target: T5, Thromboxane A2 receptor; assay type: functional, cell-based; remark: listed apart in the source
Also: assay procedure not described here.

Sequence of Bile salt export pump (O95342 whole entry): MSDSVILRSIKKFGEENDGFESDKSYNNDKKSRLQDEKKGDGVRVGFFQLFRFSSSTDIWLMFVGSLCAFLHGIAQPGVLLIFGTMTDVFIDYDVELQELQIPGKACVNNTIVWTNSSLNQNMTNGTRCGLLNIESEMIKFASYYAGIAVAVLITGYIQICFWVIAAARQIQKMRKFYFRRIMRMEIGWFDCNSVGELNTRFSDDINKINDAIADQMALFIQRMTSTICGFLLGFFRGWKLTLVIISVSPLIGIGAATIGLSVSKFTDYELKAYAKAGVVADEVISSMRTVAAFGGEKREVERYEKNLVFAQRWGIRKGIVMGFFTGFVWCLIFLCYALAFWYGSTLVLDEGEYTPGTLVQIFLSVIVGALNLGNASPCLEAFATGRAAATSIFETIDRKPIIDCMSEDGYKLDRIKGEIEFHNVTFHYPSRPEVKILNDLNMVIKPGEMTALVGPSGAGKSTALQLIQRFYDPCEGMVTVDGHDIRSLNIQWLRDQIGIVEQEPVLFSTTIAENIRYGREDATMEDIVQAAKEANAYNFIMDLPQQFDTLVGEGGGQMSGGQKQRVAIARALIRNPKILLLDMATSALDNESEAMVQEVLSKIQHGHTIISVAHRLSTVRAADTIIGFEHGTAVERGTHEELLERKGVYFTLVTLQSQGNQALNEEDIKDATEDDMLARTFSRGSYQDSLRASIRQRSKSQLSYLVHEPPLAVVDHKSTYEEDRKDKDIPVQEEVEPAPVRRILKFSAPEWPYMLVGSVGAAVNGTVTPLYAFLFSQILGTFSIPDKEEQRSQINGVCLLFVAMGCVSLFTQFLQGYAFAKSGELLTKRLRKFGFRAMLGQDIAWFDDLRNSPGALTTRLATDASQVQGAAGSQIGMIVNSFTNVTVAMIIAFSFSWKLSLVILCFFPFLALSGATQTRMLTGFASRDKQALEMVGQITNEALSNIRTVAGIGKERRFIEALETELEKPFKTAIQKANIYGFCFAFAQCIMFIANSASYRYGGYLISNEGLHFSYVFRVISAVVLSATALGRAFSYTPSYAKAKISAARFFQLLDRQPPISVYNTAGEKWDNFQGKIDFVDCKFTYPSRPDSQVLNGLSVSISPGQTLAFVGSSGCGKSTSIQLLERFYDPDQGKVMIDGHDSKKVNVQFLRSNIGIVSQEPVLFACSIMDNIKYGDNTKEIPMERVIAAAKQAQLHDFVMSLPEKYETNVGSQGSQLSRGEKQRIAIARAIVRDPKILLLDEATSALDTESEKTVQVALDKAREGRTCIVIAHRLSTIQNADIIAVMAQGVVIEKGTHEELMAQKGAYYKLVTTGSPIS

Question: How did the AC50 [1] turn out when `O=C(O)COc1ccc(C(=O)c2cccs2)c(Cl)c1Cl` was run?
Answer: > 300 µM

Question: What about the AC50 [2] of the same molecule?
Answer: > 30 µM

Question: And the AC50 [3]?
Answer: > 30 µM

Question: What about the AC50 [4] of the same molecule?
Answer: > 30 µM

Question: What about the AC50 [5] of the same molecule?
Answer: > 30 µM

Question: And the AC50 [6]?
Answer: > 30 µM

Question: What about the AC50 [7] of the same molecule?
Answer: > 30 µM

Question: What about the AC50 [8] of the same molecule?
Answer: > 30 µM

Question: What about the AC50 [9] of the same molecule?
Answer: > 30 µM

Question: And the AC50 [10]?
Answer: > 30 µM

Question: And the AC50 [11]?
Answer: > 30 µM

Question: And the AC50 [12]?
Answer: > 30 µM

Question: What about the AC50 [13] of the same molecule?
Answer: > 30 µM

Question: What about the AC50 [14] of the same molecule?
Answer: > 30 µM

Question: What about the AC50 [15] of the same molecule?
Answer: > 30 µM

Question: What about the AC50 [16] of the same molecule?
Answer: > 30 µM

Question: What does the source list for `O=C1CCc2cc(OCCCCc3nnnn3C3CCCCC3)ccc2N1` [CILOSTAZOL]?
Answer: AC50 [1]: 62 µM; AC50 [9]: > 30 µM

Question: What does the source list for `Nc1ccc(S(=O)(=O)Nc2nccs2)cc1` [SULFATHIAZOLE]?
Answer: AC50 [1]: > 300 µM; AC50 [9]: > 30 µM

Question: `COc1ccc(CC2c3cc(OC)c(OC)cc3CC[N+]2(C)CCC(=O)OCCCCCOC(=O)CC[N+]2(C)CCc3cc(OC)c(OC)cc3C2Cc2ccc(OC)c(OC)c2)cc1OC` (stereo unspecified) was tested. Which AC50 [1] did it give?
Answer: 170 µM

Question: And the AC50 [9]?
Answer: 0.16 µM

Question: How did the AC50 [1] turn out when `CN1C[C@H](C(=O)N[C@]2(C)O[C@@]3(O)[C@@H]4CCCN4C(=O)[C@H](Cc4ccccc4)N3C2=O)C=C2c3cccc4[nH]cc(c34)C[C@H]21` [ERGOTAMINE] was run?
Answer: 25 µM

Question: And the AC50 [9]?
Answer: 14.4 µM

Question: Which AC50 [1] does the source give for `CC(S)C(=O)NCC(=O)O` (stereo unspecified) [TIOPRONIN] here?
Answer: > 300 µM

Question: What about the AC50 [9] of the same molecule?
Answer: > 30 µM

Question: What does the source list for `O=C1C(CC[S+]([O-])c2ccccc2)C(=O)N(c2ccccc2)N1c1ccccc1` (stereo unspecified) [SULFINPYRAZONE]?
Answer: AC50 [1]: 24 µM; AC50 [9]: > 30 µM

Question: `CC(C)C[C@H](NC(=O)CNC(=O)c1cc(Cl)ccc1Cl)B(O)O` [IXAZOMIB] was tested. Which AC50 [1] did it give?
Answer: > 300 µM

Question: And the AC50 [2]?
Answer: > 30 µM

Question: What about the AC50 [3] of the same molecule?
Answer: > 30 µM

Question: And the AC50 [4]?
Answer: > 30 µM

Question: And the AC50 [5]?
Answer: > 30 µM

Question: And the AC50 [6]?
Answer: > 30 µM

Question: What about the AC50 [7] of the same molecule?
Answer: > 30 µM

Question: And the AC50 [8]?
Answer: > 30 µM

Question: And the AC50 [9]?
Answer: > 30 µM

Question: What about the AC50 [10] of the same molecule?
Answer: > 30 µM

Question: What about the AC50 [11] of the same molecule?
Answer: 29.9 µM

Question: And the AC50 [12]?
Answer: > 30 µM

Question: And the AC50 [13]?
Answer: > 30 µM

Question: And the AC50 [14]?
Answer: > 30 µM

Question: And the AC50 [15]?
Answer: > 30 µM

Question: And the AC50 [16]?
Answer: > 30 µM

Question: Which AC50 [1] does the source give for `CC(C)(C)NCC(O)c1cc(O)cc(O)c1` (stereo unspecified) [TERBUTALINE] here?
Answer: > 300 µM

Question: And the AC50 [9]?
Answer: > 30 µM

Question: What does the source list for `C[C@@H](NCCCc1cccc(C(F)(F)F)c1)c1cccc2ccccc12`?
Answer: AC50 [1]: 58 µM; AC50 [9]: 1.3 µM

Question: Which AC50 [1] does the source give for `CCN1CCN(Cc2ccc(Nc3ncc(F)c(-c4cc(F)c5nc(C)n(C(C)C)c5c4)n3)nc2)CC1` [ABEMACICLIB] here?
Answer: 33 µM

Question: And the AC50 [9]?
Answer: 6 µM

Question: For `C[C@H]1c2cccc(O)c2C(=O)C2=C(O)[C@]3(O)C(=O)C(C(N)=O)=C(O)[C@@H](N(C)C)[C@@H]3[C@@H](O)[C@@H]21` [DOXYCYCLINE], which AC50 [1] is on record?
Answer: > 300 µM

Question: What about the AC50 [9] of the same molecule?
Answer: > 30 µM

Question: `Cc1onc(-c2ccccc2)c1-c1ccc(S(N)(=O)=O)cc1` [VALDECOXIB] was tested. Which AC50 [1] did it give?
Answer: 240 µM

Question: And the AC50 [2]?
Answer: > 30 µM

Question: And the AC50 [3]?
Answer: > 30 µM

Question: What about the AC50 [4] of the same molecule?
Answer: > 30 µM

Question: And the AC50 [5]?
Answer: > 30 µM

Question: And the AC50 [6]?
Answer: > 30 µM

Question: And the AC50 [7]?
Answer: > 30 µM

Question: What about the AC50 [8] of the same molecule?
Answer: > 30 µM

Question: What about the AC50 [9] of the same molecule?
Answer: > 30 µM

Question: And the AC50 [10]?
Answer: > 30 µM

Question: And the AC50 [11]?
Answer: 18.7 µM

Question: What about the AC50 [14] of the same molecule?
Answer: > 30 µM

Question: And the AC50 [15]?
Answer: > 30 µM

Question: What about the AC50 [16] of the same molecule?
Answer: > 30 µM
